Measured values: paper PMC3206016, “Putting into Practice Domain-Linear Motif Interaction Predictions for Exploration of Protein Networks” (PLoS ONE, 2011)
Ends that are not written are not given here. Peptide text beside a SMILES is read from it. * marks the point of attachment. Biotin = O=C1N[C@H]2[C@H](CS[C@H]2CCCCC(=O)*)N1

Tests used:
Assay in all cases: SPR binding of MBP-PDZ analyte to immobilised biotinylated peptides
Conditions in all cases: SPR Biacore 2000, 25 C, steady state, 1:1 binding isotherm, MBP-PDZ 0-30 µM; to be considered with caution; read-out: tentative KD
[1] = target: T1, MAGI1-2/6 PDZ domain (Mus musculus, UniProt Q6RHR9)
T1 construct: The cDNA encoding residues 448–572 and 613–752 of mouse MAGI-1 (UniProt acc.: Q6RHR9-1) encoding for MAGI1-2/6; made in house; host or cells: E. coli BL21 DE3
Method: (§1) We opted for the surface plasmon resonance (SPR) method to measure these 190 (19 proteins×2 peptide versions×5 PDZ constructs) interactions. In SPR various concentrations of “analytes” (here, PDZ domains fused to the Maltose Binding Protein (MBP)) flow over surfaces presenting attached “ligands” (here, biotinylated peptides). The amount of analyte interacting with the ligand is measured and quantified in response units (RU). The intensity of this signal is proportional to the binding strength of the assayed interaction (Figure 5A). K [drawing 13] were obtained using a 1∶1 interaction model. However, these calculated K [drawing 14] were rather inaccurate especially for weak interactions. Therefore, we preferred to rank the binding strengths of the 190 interactions using normalised RU signals at equilibrium ( [drawing 15] ) rather than K [drawing 16] (see Methods for details). These normalised [drawing 17] values were plotted in form of a heat map (Figure 5B).
(§2) The cDNA encoding residues 448–572 and 613–752 of mouse MAGI-1 (UniProt acc.: Q6RHR9-1) encoding for MAGI1-2/6 (100% identical to human MAGI1-2/6) and MAGI1-3/6 (99% identical to human MAGI1-3/6) PDZ domains, respectively, were inserted into the NcoI/KpnI sites of the pETM-41 expression vector (EMBL) containing a 6×His-MBP tag followed by a TEV protease cleavage site. A similar cloning strategy was adopted for cDNA bearing residues 997–1093, 1097–1193 and 997–1193 of human SCRIB (Uniprot acc.: Q14160-1) encoding for SCRIB-3/4, SCRIB-4/4 PDZ domains and SCRIB-34/4 tandem PDZ construct, respectively.
(§3) Data were collected on a Biacore 2000 instrument (Biacore AB/GE Healthcare Bio-Sciences Corp., Piscataway, NJ, USA) at 25 [drawing 74] C. SPR experiments (ligand immobilisation and binding measurements) have been performed as described in Fournane et al.. Briefly, biotinylated peptides (instead of GST-fused recombinant peptides) were immobilised on CM5 sensorchips on which Neutravidin was previously attached. The MBP-PDZ domain analyte was injected at 8 to 10 different concentrations ranging from 0 up to 30 [drawing 75] M. Data were processed using the BiaEvaluation 3.2 software (Biacore AB/GE Healthcare Bio-Sciences Corp.) using “double referencing” [78] in which sensorgrams were corrected for buffer effects and bulk refractive index changes.
(§4) The steady-state binding signal ( [drawing 76] ) was derived by averaging the signals in a five second window at equilibrium. Steady-state analysis was performed by fitting the average signal [drawing 77] as a function of total MBP-PDZ concentrations, assuming a simple 1∶1 interaction binding isotherm model. […] Reasons for this inaccuracy are likely to be the following: 1. As previously described, several repetitions of all the measurements are required to determine accurate K [drawing 81] . In our case, such repetitions were not achievable in reasonable time due to the large amount of interactions measured in this study. 2. The highest injected analyte concentration restricts the maximal K [drawing 82] (weakest interaction) that can be accurately obtained. 3. A K [drawing 83] is estimated based on a mathematical extrapolation of observed [drawing 84] signals leading to additional uncertainty. Based on these reasons, we considered the calculated K [drawing 85] not as accurate enough to be used for absolute binding strength comparison in this study. We rather performed a relative analysis of binding strengths using directly [drawing 86] signals which are not biased by any mathematical assumption. We focussed on [drawing 87] signals obtained at 10 [drawing 88] M MBP-PDZ concentration, which have been systematically measured in duplicate. The [drawing 89] signal is directly proportional to the molecular weight of the analyte and the amount of immobilised ligand. Therefore, the [drawing 90] signals were normalised taking those into account before being used for binding strength comparison. […]

[2] = target: T2, SCRIB-34/4 tandem PDZ construct (Homo sapiens, UniProt Q14160)
T2 construct: residues 997–1093, 1097–1193 and 997–1193 of human SCRIB (Uniprot acc.: Q14160-1); made in house; host or cells: E. coli BL21 DE3
T2 sequence (Q14160 997-1193 isoform Q14160-1): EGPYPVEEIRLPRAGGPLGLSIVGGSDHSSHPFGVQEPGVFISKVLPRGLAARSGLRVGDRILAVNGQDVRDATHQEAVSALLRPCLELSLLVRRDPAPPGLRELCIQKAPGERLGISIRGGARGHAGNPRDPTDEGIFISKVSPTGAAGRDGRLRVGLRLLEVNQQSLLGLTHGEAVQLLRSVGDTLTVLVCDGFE
Method: as §1, §2, §3, §4

[3] = target: T3, SCRIB-4/4 PDZ domain (Homo sapiens, UniProt Q14160)
T3 construct: residues 997–1093, 1097–1193 and 997–1193 of human SCRIB (Uniprot acc.: Q14160-1); made in house; host or cells: E. coli BL21 DE3
T3 sequence (Q14160 1097-1193 isoform Q14160-1): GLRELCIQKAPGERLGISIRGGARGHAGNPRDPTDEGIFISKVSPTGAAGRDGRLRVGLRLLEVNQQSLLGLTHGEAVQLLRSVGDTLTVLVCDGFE
Method: as §1, §2, §3, §4

T1 sequence (Q6RHR9 448-572): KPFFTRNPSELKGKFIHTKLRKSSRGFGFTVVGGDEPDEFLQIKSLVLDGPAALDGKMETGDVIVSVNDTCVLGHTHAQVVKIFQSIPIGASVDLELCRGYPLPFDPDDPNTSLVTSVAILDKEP

| Molecule | Kd [1] | Kd [2] | Kd [3] |
| --- | --- | --- | --- |
| NPDALPETLV [ARHGAP6_10] | 18 µM | – | – |
| QGRWDHETIV [TMEM215_10] | – | 9 µM | – |
| KPGKGSETVV [FZD4_10] | 23 µM | – | – |
| CNTVTVETVV [MAS_10] | – | 3 µM | – |
| CC(C)[C@H](NC(=O)[C@@H](NC(=O)[C@@H](NC(=O)[C@H](CCC(=O)O)NC(=O)[C@H](CCCCN)NC(=O)CNC(=O)[C@H](C)NC(=O)CNC(=O)[C@H](CO)NC(=O)CNC(=O)CCCC[C@@H]1SC[C@@H]2NC(=O)N[C@@H]21)[C@@H](C)O)C(C)C)C(=O)O [MARCH3_05] (Biotin-GSGAGKETVV-OH) | – | 7 µM | – |
| C[C@H](NC(=O)CNC(=O)[C@H](CO)NC(=O)CNC(=O)CCCC[C@@H]1SC[C@@H]2NC(=O)N[C@@H]21)C(=O)NCC(=O)N[C@@H](CCCCN)C(=O)N[C@@H](CCC(=O)O)C(=O)N[C@H](C(=O)N[C@@H](CO)C(=O)N[C@@H](Cc1ccccc1)C(=O)O)[C@@H](C)O [GLUT7_05] (Biotin-GSGAGKETSF-OH) | – | 5 µM | – |
| GSGAGSETSV [VANG2_05] | – | 4 µM | – |
| CC[C@H](C)[C@H](NC(=O)CNC(=O)[C@H](C)NC(=O)CNC(=O)[C@H](CO)NC(=O)CNC(=O)CCCC[C@@H]1SC[C@@H]2NC(=O)N[C@@H]21)C(=O)N[C@@H](C)C(=O)N[C@H](C(=O)N[C@@H](CCC(=O)O)C(=O)N[C@H](C(=O)O)C(C)C)[C@@H](C)O [DLL1_05] (Biotin-GSGAGIATEV-OH) | – | – | 893 µM |
| KDECVIATEV [DLL1_10] | – | – | 88 µM |
| SVWLRKETRV [CYSLTR2_10] | – | 15 µM | 202 µM |
| CC(C)[C@H](NC(=O)[C@@H](NC(=O)[C@@H](NC(=O)[C@H](CCC(=O)O)NC(=O)[C@@H](NC(=O)CNC(=O)[C@H](C)NC(=O)CNC(=O)[C@H](CO)NC(=O)CNC(=O)CCCC[C@@H]1SC[C@@H]2NC(=O)N[C@@H]21)C(C)C)[C@@H](C)O)C(C)C)C(=O)O [MAS_05] (Biotin-GSGAGVETVV-OH) | – | 16 µM | 433 µM |
| CC(C)[C@H](NC(=O)[C@H](CCCNC(=N)N)NC(=O)[C@@H](NC(=O)[C@H](CCC(=O)O)NC(=O)[C@H](CCCCN)NC(=O)CNC(=O)[C@H](C)NC(=O)CNC(=O)[C@H](CO)NC(=O)CNC(=O)CCCC[C@@H]1SC[C@@H]2NC(=O)N[C@@H]21)[C@@H](C)O)C(=O)O [CYSLTR2_05] (Biotin-GSGAGKETRV-OH) | – | 10 µM | 123 µM |
| CC[C@H](C)[C@H](NC(=O)CNC(=O)[C@H](C)NC(=O)CNC(=O)[C@H](CO)NC(=O)CNC(=O)CCCC[C@@H]1SC[C@@H]2NC(=O)N[C@@H]21)C(=O)N[C@@H](CCC(=O)O)C(=O)N[C@@H](CO)C(=O)N[C@@H](CC(N)=O)C(=O)N[C@H](C(=O)O)C(C)C [TANC1_05] (Biotin-GSGAGIESNV-OH) | – | 9 µM | – |
| CC(C)C[C@H](NC(=O)[C@@H](NC(=O)[C@H](CCC(=O)O)NC(=O)[C@@H]1CCCN1C(=O)CNC(=O)[C@H](C)NC(=O)CNC(=O)[C@H](CO)NC(=O)CNC(=O)CCCC[C@@H]1SC[C@@H]2NC(=O)N[C@@H]21)[C@@H](C)O)C(=O)N[C@H](C(=O)O)C(C)C [ARHGAP6_05] (Biotin-GSGAGPETLV-OH) | – | – | 104 µM |
| CC[C@H](C)[C@H](NC(=O)[C@@H](NC(=O)[C@H](CCC(=O)O)NC(=O)[C@H](Cc1c[nH]cn1)NC(=O)CNC(=O)[C@H](C)NC(=O)CNC(=O)[C@H](CO)NC(=O)CNC(=O)CCCC[C@@H]1SC[C@@H]2NC(=O)N[C@@H]21)[C@@H](C)O)C(=O)N[C@H](C(=O)O)C(C)C [TMEM215_05] (Biotin-GSGAGHETIV-OH) | – | 15 µM | – |
| CC(C)[C@H](NC(=O)[C@H](Cc1ccc(O)cc1)NC(=O)[C@H](CO)NC(=O)[C@H](CCC(=O)O)NC(=O)[C@H](CCCCN)NC(=O)CNC(=O)[C@H](C)NC(=O)CNC(=O)[C@H](CO)NC(=O)CNC(=O)CCCC[C@@H]1SC[C@@H]2NC(=O)N[C@@H]21)C(=O)O [ABC1_05] (Biotin-GSGAGKESYV-OH) | – | 10 µM | – |
| QDEKVKESYV [ABC1_10] | – | 8 µM | – |
| NRVDSKETEC [ADAM17_10] | – | 8 µM | – |
